Measured values published in patent US20230365589A1, “NOVEL AMINE DERIVATIVES” (Sumitomo Pharma Co., Ltd., priority 2020, published 2023).
Each block holds one molecule with its values, some of them ahead of it.

Tests used:
Type in all cases: biochemical
[1] = target: T1, DYRK1A (Homo sapiens, UniProt Q13627); experiment: Inhibition test on activity of DYRK family, mobility shift assay (MSA): DYRK1A; settings: MSA, FITC-labeled DYRKtide peptide, ATP 100 μM; read-out: Inhibitory activity DYRK 1A (IC50 class)
T1 construct: purchased Carna Biosciences, Inc. 04-130
In short: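 IC50 derived by regressing inhibition rate on log compound concentration, using P/(P+S) peak ratios from electrophoretic separation. DYRK1A enzyme solution 0.2 ng/μL, substrate mix with 4 μM FITC-DYRKtide and 100 μM ATP, pH 7.5 HEPES; reaction run 1 h at room temperature.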

[2] = target: T2, DYRK2 (Homo sapiens, UniProt Q92630); experiment: Inhibition test on activity of DYRK family, mobility shift assay (MSA): DYRK2; settings: MSA, FITC-labeled DYRKtide peptide, ATP 40 μM; read-out: Inhibitory activity DYRK 2 (IC50 class)
T2 construct: purchased Carna Biosciences, Inc. 04-132
T2 sequence (Q92630 74-601 limits assumed): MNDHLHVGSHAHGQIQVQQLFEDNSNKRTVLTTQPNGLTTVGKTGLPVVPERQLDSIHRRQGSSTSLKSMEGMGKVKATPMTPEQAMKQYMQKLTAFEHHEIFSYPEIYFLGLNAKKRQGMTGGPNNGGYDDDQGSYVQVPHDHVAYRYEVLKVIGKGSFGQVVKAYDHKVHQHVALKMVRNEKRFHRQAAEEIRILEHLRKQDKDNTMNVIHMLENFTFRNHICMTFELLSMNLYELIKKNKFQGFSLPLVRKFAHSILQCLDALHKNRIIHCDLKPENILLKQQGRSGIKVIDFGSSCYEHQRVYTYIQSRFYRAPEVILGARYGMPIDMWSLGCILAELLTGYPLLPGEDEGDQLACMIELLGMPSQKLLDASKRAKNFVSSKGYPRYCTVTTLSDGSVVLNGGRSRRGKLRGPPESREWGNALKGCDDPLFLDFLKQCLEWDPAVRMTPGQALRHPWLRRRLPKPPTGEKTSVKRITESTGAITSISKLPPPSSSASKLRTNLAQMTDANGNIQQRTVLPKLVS
In short: (§1)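 Reactions ran 1 h at room temperature in HEPES buffer pH 7.5 with FITC-DYRKtide as substrate. ATP in the substrate mix was 100 µM for DYRK1A, 200 µM for DYRK1B, 40 µM for DYRK2 and 20 µM for DYRK3. Phosphorylated and unphosphorylated peptide were separated on a LabChip, and IC50 was regressed on log dose.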

[3] = target: T3, DYRK3 (Homo sapiens, UniProt O43781); experiment: Inhibition test on activity of DYRK family, mobility shift assay (MSA): DYRK3; settings: MSA, FITC-labeled DYRKtide peptide, ATP 20 μM; read-out: Inhibitory activity DYRK 3 (IC50 class)
T3 construct: purchased Carna Biosciences, Inc. 04-133
T3 sequence (O43781 1-568 isoform O43781-2): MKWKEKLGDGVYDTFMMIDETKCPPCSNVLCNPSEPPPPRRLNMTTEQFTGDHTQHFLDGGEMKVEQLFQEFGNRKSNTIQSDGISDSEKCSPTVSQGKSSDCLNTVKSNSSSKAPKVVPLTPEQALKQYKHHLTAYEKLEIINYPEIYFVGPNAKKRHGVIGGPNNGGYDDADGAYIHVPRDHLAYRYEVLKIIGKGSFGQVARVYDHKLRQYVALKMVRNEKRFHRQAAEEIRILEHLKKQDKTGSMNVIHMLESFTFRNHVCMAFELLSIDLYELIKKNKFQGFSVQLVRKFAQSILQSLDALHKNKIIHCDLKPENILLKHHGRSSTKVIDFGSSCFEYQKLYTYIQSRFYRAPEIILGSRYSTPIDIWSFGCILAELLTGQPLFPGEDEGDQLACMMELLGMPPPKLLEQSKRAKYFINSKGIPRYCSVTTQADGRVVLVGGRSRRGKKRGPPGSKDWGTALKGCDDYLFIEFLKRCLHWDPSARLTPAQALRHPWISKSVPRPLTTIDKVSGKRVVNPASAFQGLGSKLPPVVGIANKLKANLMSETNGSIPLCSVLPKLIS
In short: as §1

SMILES: N#C[C@H]1C[C@@H]2[C@H](CO1)NC(=O)N2c1nc2c3c(ccc2s1)OCCO3 [Example 133, (3aR,6R,7aR)-1-(7,8-dihydro[1,4]dioxino[2,3-e][1,3]benzothiazol-2-yl)-2-oxooctahydropyrano[3,4-d]imidazole-6-carbonitrile]
IC50 [1]: < 10 nM
IC50 [2]: 100 to 1000 nM
IC50 [3]: 100 to 1000 nM

SMILES: C[C@H]1C[C@H]2NC(=O)N(c3nc4c5c(ccc4s3)OCC5)[C@H]2CO1 [Example 134]
IC50 [1]: 100 to 1000 nM
IC50 [2]: ≥ 1000 nM
IC50 [3]: ≥ 1000 nM

SMILES: O=C1N[C@H]2COCCC[C@H]2N1c1nc2c3c(ccc2s1)OCCO3 [Example 135, (3aR,8aR)-1-(7,8-dihydro[1,4]dioxino[2,3-e][1,3]benzothiazol-2-yl)hexahydro-1H-oxepino[3,4-d]imidazol-2(3H)-one]
IC50 [1]: 10 to 100 nM
IC50 [2]: 100 to 1000 nM
IC50 [3]: 100 to 1000 nM

SMILES: COC(=O)[C@H]1C[C@@H]2[C@H](CO1)NC(=O)N2c1nc2c3c(ccc2s1)OCC3 [Example 141]
IC50 [1]: 10 to 100 nM
IC50 [2]: ≥ 1000 nM
IC50 [3]: ≥ 1000 nM

SMILES: O=C1N[C@H]2CO[C@@H](CO)C[C@H]2N1c1nc2c3c(ccc2s1)OCC3 [Example 144, (3aR,6R,7aR)-1-(7,8-dihydrofuro[3,2-e][1,3]benzothiazol-2-yl)-6-(hydroxymethyl)hexahydropyrano[3,4-d]imidazol-2(3H)-one]
IC50 [1]: < 10 nM
IC50 [2]: ≥ 1000 nM
IC50 [3]: 100 to 1000 nM

SMILES: O=C1N[C@H]2CO[C@@H](CO)C[C@H]2N1c1nc2c3c(ccc2s1)OCO3 [Example 147, (3aR,6R,7aR)-1-(2H-[1,3]dioxolo[4,5-e][1,3]benzothiazol-7-yl)-6-(hydroxymethyl)hexahydropyrano[3,4-d]imidazol-2(3H)-one]
IC50 [1]: < 10 nM
IC50 [2]: ≥ 1000 nM
IC50 [3]: 100 to 1000 nM

SMILES: O=C1N[C@H]2COC(F)C[C@H]2N1c1nc2c3c(ccc2s1)OCC3 (stereo partly drawn) [Example 151, (3aR,7aR)-1-(7,8-Dihydrofuro[3,2-e][1,3]benzothiazol-2-yl)-6-fluorohexahydropyrano[3,4-d]imidazol-2(3H)-one]
IC50 [1]: < 10 nM
IC50 [2]: 100 to 1000 nM
IC50 [3]: 10 to 100 nM

SMILES: O=C1C[C@@H]2[C@H](CO1)NC(=O)N2c1nc2c3c(ccc2s1)OCC3 [Example 152]
IC50 [1]: < 10 nM
IC50 [2]: 10 to 100 nM
IC50 [3]: 10 to 100 nM

SMILES: O=C1N[C@@H]2[C@@H](CO[C@@H]2CO)N1c1nc2c3c(ccc2s1)OCC3 [Example 153]
IC50 [1]: 10 to 100 nM
IC50 [2]: 100 to 1000 nM
IC50 [3]: 100 to 1000 nM

SMILES: O=C1N[C@@H]2CO[C@H](CO)[C@@H]2N1c1nc2c3c(ccc2s1)OCC3 [Example 154]
IC50 [1]: ≥ 1000 nM
IC50 [2]: ≥ 1000 nM
IC50 [3]: ≥ 1000 nM

More lines, now with the values ahead:

IC50 [1]: 100 to 1000 nM
IC50 [2]: ≥ 1000 nM
IC50 [3]: ≥ 1000 nM
SMILES: O=C1N[C@@H]2C[C@H](CO)OC[C@@H]2N1c1nc2c3c(ccc2s1)OCC3 [Example 145]

IC50 [1]: < 10 nM
IC50 [2]: ≥ 1000 nM
IC50 [3]: 100 to 1000 nM
SMILES: O=C1N[C@H]2CO[C@@H](CO)C[C@H]2N1c1nc2c3c(ccc2s1)OCCO3 [Example 146, (3aR,6R, 7aR)-1-(7,8-dihydro[1,4]dioxino[2,3-e][1,3]benzothiazol-2-yl)-6-(hydroxymethyl)hexahydropyrano[3,4-d]imidazol-2(3H)-one]

IC50 [1]: < 10 nM
IC50 [2]: ≥ 1000 nM
IC50 [3]: 100 to 1000 nM
SMILES: C#C[C@H]1C[C@@H]2[C@H](CO1)NC(=O)N2c1nc2c3c(ccc2s1)OCC3 [Example 149, (3aR,6R,7aR)-1-(7,8-dihydrofuro[3,2-e][1,3]benzothiazol-2-yl)-6-ethynylhexahydropyrano[3,4-d]imidazol-2(3H)-one]

IC50 [1]: 10 to 100 nM
IC50 [2]: 100 to 1000 nM
IC50 [3]: 100 to 1000 nM
SMILES: O=C1N[C@H]2COC(O)C[C@H]2N1c1nc2c3c(ccc2s1)OCC3 (stereo partly drawn) [Example 150, (3aR,7aR)-1-(7,8-Dihydrofuro[3,2-e][1,3]benzothiazol-2-yl)-6-hydroxyhexahydropyrano[3,4-d]imidazol-2(3H)-one]
